Assay results published in patent US5110816A, “3-[2-(4-arylpiperazin-1-yl)ethoxy]-p-cymene, the method of preparing and composition thereof” (Institut de Recherches Chimiques et Biologiques Appliquees …, priority 1988, dated 1992).
Structures can show the parent of a compound that is named as a salt.

Biological target: T1, postsynaptic alpha-adrenergic receptors (Rattus norvegicus, UniProt P43140)
T1 construct: contraction of the isolated vas deferens; from tissue; host or cells: isolated rat vas deferens
T1 sequence (P43140 1-466): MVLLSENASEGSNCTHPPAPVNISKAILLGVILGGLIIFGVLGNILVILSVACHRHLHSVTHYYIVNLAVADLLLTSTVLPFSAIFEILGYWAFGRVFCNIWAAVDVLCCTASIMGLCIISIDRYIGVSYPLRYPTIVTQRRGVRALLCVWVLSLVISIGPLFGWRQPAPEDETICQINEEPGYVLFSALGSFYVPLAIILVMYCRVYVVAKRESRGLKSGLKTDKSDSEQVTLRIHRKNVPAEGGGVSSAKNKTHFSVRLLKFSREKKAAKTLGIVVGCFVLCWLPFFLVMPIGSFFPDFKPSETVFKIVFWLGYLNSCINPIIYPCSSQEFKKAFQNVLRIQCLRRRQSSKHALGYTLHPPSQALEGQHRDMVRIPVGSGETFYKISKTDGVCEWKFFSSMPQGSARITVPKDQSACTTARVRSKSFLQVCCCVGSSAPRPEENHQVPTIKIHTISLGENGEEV
Assay: Alpha-blocking activity on isolated rat vas deferens
Assay type: cell-based
Conditions: norepinephrine contraction, -log of product concentration at which norepinephrine concentration must be doubled, read-out: pA2 (converted)
Source text: 2. Determination of the Alpha-Blocking Activity on Isolated Rat Vas Deferens
Stimulation of the postsynaptic alpha-adrenergic receptors by norepinephrine causes contraction of the isolated vas deferens. The aim is to find the product concentration in whose presence the norepinephrine concentration must be doubled in order to obtain the same effect as in the absence of said product.
The logarithm of this concentration, with its sign changed, represents the pA2 value of the product.

SMILES	Kb [nM]
Cc1ccc(C(C)C)c(OCCN2CCN(c3cc(Cl)ccc3C)CC2)c1 [B.1256]	> 1000
Cc1ccc(C(C)C)c(OCCN2CCN(c3ccccc3F)CC2)c1 [B.1261, 3-[2-(4-o-fluorophenylpiperazin-1-yl)ethoxy]-p-cymene hydrochloride]	363
Cc1ccc(C(C)C)c(OCCN2CCN(c3c(C)cccc3Cl)CC2)c1 [B.1326]	> 1000
Cc1ccc(C(C)C)c(OCCN2CCN(c3ccccc3O)CC2)c1 [B.1338]	40.7
CCCCOc1ccccc1N1CCN(CCOc2cc(C)ccc2C(C)C)CC1 [B.1340]	> 1000
Cc1ccc(C(C)C)c(OCCN2CCN(c3cccc(O)c3)CC2)c1 [B.1343]	832
Cc1ccc(N2CCN(CCOc3cc(C)ccc3C(C)C)CC2)c(Cl)c1 [B.1353]	> 1000
CCCCCOc1ccccc1N1CCN(CCOc2cc(C)ccc2C(C)C)CC1 [B.1356]	> 1000
CCCOc1ccccc1N1CCN(CCOc2cc(C)ccc2C(C)C)CC1 [B.1358]	> 1000
COc1ccc(OC)c(N2CCN(CCOc3cc(C)ccc3C(C)C)CC2)c1 [B.1387]	355
Cc1ccc(C(C)C)c(OCCN2CCN(c3c(C)cccc3C)CC2)c1 [B.1393]	> 1000

Test system: toxicity of norepinephrine
Assay: Adrenolytic activity in vivo in rats (protection against norepinephrine lethality)
Conditions: Rattus norvegicus, oral 30 minutes before i.v. norepinephrine 0.4 mg.kg^-1, dose protecting 50 percent of animals
Experimental: 4. Determination of the Adrenolytic Activity "In Vivo" in Rats
The intravenous injection of norepinephrine (0.4 mg.kg^-1) in wake rats causes the death of 100 percent of the animals. The prior administration of a substance with an alpha-blocking property makes it possible to reduce this toxicity.
The products claimed were administered orally 30 minutes before the intravenous injection of norepinephrine.
These are expressed in the form of the 50% effective dose (ED50), i.e. the dose, in mg.kg^-1, which protects 50 percent of the animals.

SMILES	ED50 [mg/kg]
Cc1ccc(C(C)C)c(OCCN2CCN(c3ccc(Cl)cc3C)CC2)c1 [B.1152, 3-[2-4-(4-chloro-2-methyl)phenylpiperazine-1-yl)ethoxy]-p-cymene hydrochloride]	> 100
Cc1ccc(C(C)C)c(OCCN2CCN(c3ccc(Cl)c(Cl)c3)CC2)c1 [B.1184, 3-[2-4-(3,4-dichloro)phenylpiperazin-1-yl)ethoxy]-p-cymene hydrochloride]	> 100
Cc1ccc(C(C)C)c(OCCN2CCN(c3cc(Cl)ccc3C)CC2)c1 [B.1256]	121
Cc1ccc(C(C)C)c(OCCN2CCN(c3ccccc3F)CC2)c1 [B.1261, 3-[2-(4-o-fluorophenylpiperazin-1-yl)ethoxy]-p-cymene hydrochloride]	20
Cc1ccc(C(C)C)c(OCCN2CCN(c3c(C)cccc3Cl)CC2)c1 [B.1326]	> 200
Cc1ccc(C(C)C)c(OCCN2CCN(c3ccccc3O)CC2)c1 [B.1338]	6.4
CCCCOc1ccccc1N1CCN(CCOc2cc(C)ccc2C(C)C)CC1 [B.1340]	11.3
Cc1ccc(C(C)C)c(OCCN2CCN(c3cccc(O)c3)CC2)c1 [B.1343]	142
Cc1ccc(N2CCN(CCOc3cc(C)ccc3C(C)C)CC2)c(Cl)c1 [B.1353]	30.9
CCCCCOc1ccccc1N1CCN(CCOc2cc(C)ccc2C(C)C)CC1 [B.1356]	31.1
CCCOc1ccccc1N1CCN(CCOc2cc(C)ccc2C(C)C)CC1 [B.1358]	2.1
COc1ccc(OC)c(N2CCN(CCOc3cc(C)ccc3C(C)C)CC2)c1 [B.1387]	6.78
Cc1ccc(C(C)C)c(OCCN2CCN(c3c(C)cccc3C)CC2)c1 [B.1393]	> 200
Cc1ccc(C(C)C)c(OCCN2CCN(c3ccccc3OC(C)C)CC2)c1 [B.1399]	0.78

Same assay, conditions: oral

SMILES	protection against the toxicity of norepinephrine (in words)
CCCOc1ccccc1N1CCN(CCOc2cc(C)ccc2C(C)C)CC1 [B.1358]	excellent protection against the toxicity of norepinephrine
COc1ccc(OC)c(N2CCN(CCOc3cc(C)ccc3C(C)C)CC2)c1 [B.1387]	excellent protection against the toxicity of norepinephrine
Cc1ccc(C(C)C)c(OCCN2CCN(c3ccccc3OC(C)C)CC2)c1 [B.1399]	excellent protection against the toxicity of norepinephrine

Test system: arterial pressure
Assay: Norepinephrine-induced arterial hyperpressure in anesthetized rabbits
Assay type: in vivo
Conditions: Oryctolagus cuniculus, iv, norepinephrine i.v., 50% inhibition of increase in arterial pressure, read-out: Arterial pressure ID50
Experimental: (§1) 5. Activity on Ureteral Hyperpressure in Rabbits
(§2) An increase in the arterial pressure and the ureteral pressure is induced in anesthetized rabbits by an intravenous injection of norepinephrine. These hyperpressures can be inhibited by the prior administration of molecules with alpha-blocking potential.
The efficacy is assessed by the 50% inhibitory dose (ID50), i.e. the dose which inhibits the increases in arterial and ureteral pressures by 50 percent.

SMILES	ED50 [mg/kg]
Cc1ccc(C(C)C)c(OCCN2CCN(c3ccccc3O)CC2)c1 [B.1338]	19
CCCOc1ccccc1N1CCN(CCOc2cc(C)ccc2C(C)C)CC1 [B.1358]	5
Cc1ccc(C(C)C)c(OCCN2CCN(c3ccccc3OC(C)C)CC2)c1 [B.1399]	1.64

Test system: not listed separately
Assay: Solubility remark in the isolated rat vas deferens test (Table II)
Assay type: physicochemical
Conditions: under pA2 in Table II, value N.D.

SMILES	solubility remark
Cc1ccc(C(C)C)c(OCCN2CCN(c3ccc(Cl)cc3C)CC2)c1 [B.1152, 3-[2-4-(4-chloro-2-methyl)phenylpiperazine-1-yl)ethoxy]-p-cymene hydrochloride]	insoluble
Cc1ccc(C(C)C)c(OCCN2CCN(c3ccc(Cl)c(Cl)c3)CC2)c1 [B.1184, 3-[2-4-(3,4-dichloro)phenylpiperazin-1-yl)ethoxy]-p-cymene hydrochloride]	insoluble

Test system: ureteral pressure
Assay: Norepinephrine-induced ureteral hyperpressure in anesthetized rabbits
Assay type: in vivo
Conditions: I.V.
Source text: as §1, §2

SMILES	ratio of ID50 arterial pressure to ID50 ureteral pressure
Cc1ccc(C(C)C)c(OCCN2CCN(c3ccccc3O)CC2)c1 [B.1338]	11.8
CCCOc1ccccc1N1CCN(CCOc2cc(C)ccc2C(C)C)CC1 [B.1358]	4.1
Cc1ccc(C(C)C)c(OCCN2CCN(c3ccccc3OC(C)C)CC2)c1 [B.1399]	9.1

Same assay, conditions: Oryctolagus cuniculus, iv, norepinephrine i.v., 50% inhibition of increase in ureteral pressure, read-out: Ureteral pressure ID50

SMILES	ED50 [mg/kg]
Cc1ccc(C(C)C)c(OCCN2CCN(c3ccccc3O)CC2)c1 [B.1338]	1.6
CCCOc1ccccc1N1CCN(CCOc2cc(C)ccc2C(C)C)CC1 [B.1358]	1.22
Cc1ccc(C(C)C)c(OCCN2CCN(c3ccccc3OC(C)C)CC2)c1 [B.1399]	0.18

Test system: not listed separately
Assay: Acute toxicity in mice, single oral dose
Conditions: mouse, in vivo, p.o., 14-day observation
Experimental: The products were administered orally to mice in a single dose. After a 14-day observation period, the mortality was recorded.
The results are expressed in the form of the 50% lethal dose (LD50) in mg.kg^-1.

SMILES	LD50 at 336 h [mg/kg]
Cc1ccc(C(C)C)c(OCCN2CCN(c3ccc(Cl)cc3C)CC2)c1 [B.1152, 3-[2-4-(4-chloro-2-methyl)phenylpiperazine-1-yl)ethoxy]-p-cymene hydrochloride]	> 1000
Cc1ccc(C(C)C)c(OCCN2CCN(c3ccc(Cl)c(Cl)c3)CC2)c1 [B.1184, 3-[2-4-(3,4-dichloro)phenylpiperazin-1-yl)ethoxy]-p-cymene hydrochloride]	> 1000
Cc1ccc(C(C)C)c(OCCN2CCN(c3cc(Cl)ccc3C)CC2)c1 [B.1256]	> 1000
Cc1ccc(C(C)C)c(OCCN2CCN(c3ccccc3F)CC2)c1 [B.1261, 3-[2-(4-o-fluorophenylpiperazin-1-yl)ethoxy]-p-cymene hydrochloride]	> 1000
Cc1ccc(C(C)C)c(OCCN2CCN(c3c(C)cccc3Cl)CC2)c1 [B.1326]	> 1000
Cc1ccc(C(C)C)c(OCCN2CCN(c3ccccc3O)CC2)c1 [B.1338]	> 1000
CCCCOc1ccccc1N1CCN(CCOc2cc(C)ccc2C(C)C)CC1 [B.1340]	> 1000
Cc1ccc(C(C)C)c(OCCN2CCN(c3cccc(O)c3)CC2)c1 [B.1343]	> 1000
Cc1ccc(N2CCN(CCOc3cc(C)ccc3C(C)C)CC2)c(Cl)c1 [B.1353]	> 1000
CCCCCOc1ccccc1N1CCN(CCOc2cc(C)ccc2C(C)C)CC1 [B.1356]	> 1000
CCCOc1ccccc1N1CCN(CCOc2cc(C)ccc2C(C)C)CC1 [B.1358]	> 1000
COc1ccc(OC)c(N2CCN(CCOc3cc(C)ccc3C(C)C)CC2)c1 [B.1387]	> 1000
Cc1ccc(C(C)C)c(OCCN2CCN(c3c(C)cccc3C)CC2)c1 [B.1393]	> 1000
Cc1ccc(C(C)C)c(OCCN2CCN(c3ccccc3OC(C)C)CC2)c1 [B.1399]	~500

Test system: postsynaptic alpha-adrenergic receptors
Assay: Alpha-blocking activity on isolated rabbit ureter
Assay type: cell-based
Conditions: norepinephrine contraction halved, printed in Table II with asterisk
Source text: 3. Determination of the Alpha-Blocking Activity on Isolated Rabbit Ureter
Stimulation of the postsynaptic alpha-adrenergic receptors by norepinephrine causes contraction of the isolated rabbit ureter.
The aim is to find the product concentration in whose presence the contracting effect of a given norepinephrine concentration is halved by comparison with the contraction induced before the addition of said product.
The logarithm of this concentration, with its sign changed, represents the pD'2 value.

SMILES	pD'2
Cc1ccc(C(C)C)c(OCCN2CCN(c3ccccc3OC(C)C)CC2)c1 [B.1399]	6.69
